Laboratory results as given in patent publication US12691065B2, “Liposome formulations for treatment of cancers and drug resistance of cancers” (NanoTech Pharma Inc., priority 2020, dated 2026).

What was measured:
MDA-MB-231(R) cells = assay: MTT cytotoxicity of DOX on MDA-MB-231 versus MDA-MB-231(R); format: cell-based, human; conditions: 48-hour DOX treatment, each dose level
Source text: Doxorubicin resistant cell lines of MDA-MB-231 and MCF-7 were developed in house. The resistant variants were generated by repeatedly culturing MDA-MB-231 and MCF-7 cells in the presence of 0.2 μmol/L DOX. These cells that proliferated well in the presence of doxorubicin after several passages qualified as DOX-resistant MDA-MB-231 and MCF-7 cells, which were named as MDA-MB-231(R) and MCF-7(R) cell lines, respectively. Both MDA-MB-231(R) and MCF-7(R) cell lines were characterized against non-DOX treated MDA-MB-231 and MCF-7 cell lines.
The cell seeded plate was incubated for 24 hours at 37° C. and 5% CO2 in a standard cell culture incubator before drug treatment. […] After another 24 hours of incubation, cell viability was assessed by the MTT assay following the manufacture's protocols. Relative percent survival was determined by subtracting absorbance values obtained by media-only wells from drug treated wells and then normalizing to the no-drug control wells (cell only control). The fraction of cells affected (Fa), or cell growth inhibition (%) at each drug concentration was subsequently calculated for each well. The effect of drug combinations was then calculated and processed by a software CompuSyn for drug synergy analysis. The program employs the median-effect analysis algorithm, which produces the Combination Index (CI) value as a quantitative indicator of the degree of synergy. […]

[1] = In-vivo pharmacokinetic study, intravenous; conditions: free drug solution, CD-1 mice
Source text: After intravenous administration, blood was collected at multiple time points for a week by cardiac puncture (3 mice per time point) and placed into EDTA coated micro containers. The samples were centrifuged to separate plasma, and plasma was transferred to another tube.

half-life (T1/2) [1]: 30 min
SMILES: COc1cccc2c1C(=O)c1c(O)c3c(c(O)c1C2=O)C[C@@](O)(C(=O)CO)C[C@@H]3O[C@H]1C[C@H](N)[C@H](O)[C@H](C)O1.Cl [DOX, Doxorubicin hydrochloride]
cell viability of MDA-MB-231(R) compared to MDA-MB-231 (MDA-MB-231(R) cells): markedly greater
